#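 Results reflect a 48-hour exposure of cells in 96-well plates to compound at five concentrations. At the TGI there is no net growth.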
# Experiments:
# Test in all cases: DTP human tumour cell line panel, 48 h
# HOP-62 NSCLC = tested on: HOP-62 NSCLC
# SF-295 CNS = tested on: SF-295 CNS
# CCRF-CEM leukemia = tested on: CCRF-CEM leukemia
# COLO 205 colon = tested on: COLO 205 colon
# RPMI-8226 leukemia = tested on: RPMI-8226 leukemia
# CAKI-1 renal = tested on: CAKI-1 renal
# TK-10 renal = tested on: TK-10 renal
# HCT-15 colon = tested on: HCT-15 colon
# DLD-1 colon = tested on: DLD-1 colon
# MOLT-4 leukemia = tested on: MOLT-4 leukemia
# KM12 colon = tested on: KM12 colon
# OVCAR-5 ovarian = tested on: OVCAR-5 ovarian
# KM20L2 colon = tested on: KM20L2 colon
# HOP-18 NSCLC = tested on: HOP-18 NSCLC
# LXFL 529 NSCLC = tested on: LXFL 529 NSCLC
# UACC-62 melanoma = tested on: UACC-62 melanoma
# UO-31 renal = tested on: UO-31 renal
# SK-MEL-28 melanoma = tested on: SK-MEL-28 melanoma
# SW-620 colon = tested on: SW-620 colon
# NCI-H226 lung = tested on: NCI-H226 lung
# IGROV1 ovarian = tested on: IGROV1 ovarian
# SN12C renal = tested on: SN12C renal
# HCC-2998 colon = tested on: HCC-2998 colon
# A549 NSCLC = tested on: A549 NSCLC
# MALME-3M melanoma = tested on: MALME-3M melanoma
# NCI-H460 lung = tested on: NCI-H460 lung
# UACC-257 melanoma = tested on: UACC-257 melanoma
# SK-MEL-5 melanoma = tested on: SK-MEL-5 melanoma
# HT29 colon = tested on: HT29 colon
# NCI-H23 lung = tested on: NCI-H23 lung
# EKVX NSCLC = tested on: EKVX NSCLC
# M19-MEL melanoma = tested on: M19-MEL melanoma
# SF-539 CNS = tested on: SF-539 CNS
# SK-OV-3 ovarian = tested on: SK-OV-3 ovarian
# DMS 114 small cell lung = tested on: DMS 114 small cell lung
# DMS 273 small cell lung = tested on: DMS 273 small cell lung
# 786-0 renal = tested on: 786-0 renal
# HOP-92 NSCLC = tested on: HOP-92 NSCLC
# U251 CNS = tested on: U251 CNS
# HCT-116 colon = tested on: HCT-116 colon
# K-562 leukemia = tested on: K-562 leukemia
# A498 renal = tested on: A498 renal
# RXF 393 renal = tested on: RXF 393 renal
# SK-MEL-2 melanoma = tested on: SK-MEL-2 melanoma
# SF-268 CNS = tested on: SF-268 CNS
# SR leukemia = tested on: SR leukemia
# LOX IMVI melanoma = tested on: LOX IMVI melanoma
# OVCAR-4 ovarian = tested on: OVCAR-4 ovarian
# OVCAR-8 ovarian = tested on: OVCAR-8 ovarian
# ACHN renal = tested on: ACHN renal
# OVCAR-3 ovarian = tested on: OVCAR-3 ovarian
# XF 498 CNS = tested on: XF 498 CNS
# M14 melanoma = tested on: M14 melanoma
# HL-60(TB) leukemia = tested on: HL-60(TB) leukemia
# SNB-75 CNS = tested on: SNB-75 CNS
# SNB-78 CNS = tested on: SNB-78 CNS
# NCI-H522 lung = tested on: NCI-H522 lung
# SNB-19 CNS = tested on: SNB-19 CNS
compound,measurement,setting,value
O=S(=O)(N/N=C/c1cccc(Cl)c1Cl)c1ccccc1,TGI,HOP-62 NSCLC,> 100 µM
same,TGI,SF-295 CNS,> 100 µM
same,TGI,CCRF-CEM leukemia,> 100 µM
same,TGI,COLO 205 colon,> 100 µM
same,TGI,RPMI-8226 leukemia,> 100 µM
same,TGI,CAKI-1 renal,> 100 µM
same,TGI,TK-10 renal,> 100 µM
same,TGI,HCT-15 colon,> 100 µM
same,TGI,DLD-1 colon,> 100 µM
same,TGI,MOLT-4 leukemia,58.1 µM
same,TGI,KM12 colon,> 100 µM
same,TGI,OVCAR-5 ovarian,> 100 µM
same,TGI,KM20L2 colon,> 100 µM
same,TGI,HOP-18 NSCLC,> 100 µM
same,TGI,LXFL 529 NSCLC,> 100 µM
same,TGI,UACC-62 melanoma,> 100 µM
same,TGI,UO-31 renal,> 100 µM
same,TGI,SK-MEL-28 melanoma,> 100 µM
same,TGI,SW-620 colon,> 100 µM
same,TGI,NCI-H226 lung,> 100 µM
same,TGI,IGROV1 ovarian,> 100 µM
same,TGI,SN12C renal,> 100 µM
same,TGI,HCC-2998 colon,> 100 µM
same,TGI,A549 NSCLC,> 100 µM
same,TGI,MALME-3M melanoma,> 100 µM
same,TGI,NCI-H460 lung,> 100 µM
same,TGI,UACC-257 melanoma,> 100 µM
same,TGI,SK-MEL-5 melanoma,> 100 µM
same,TGI,HT29 colon,> 100 µM
same,TGI,NCI-H23 lung,> 100 µM
same,TGI,EKVX NSCLC,> 100 µM
same,TGI,M19-MEL melanoma,> 100 µM
same,TGI,SF-539 CNS,> 100 µM
same,TGI,SK-OV-3 ovarian,> 100 µM
same,TGI,DMS 114 small cell lung,90.3 µM
same,TGI,DMS 273 small cell lung,> 100 µM
same,TGI,786-0 renal,> 100 µM
same,TGI,HOP-92 NSCLC,82.5 µM
same,TGI,U251 CNS,> 100 µM
same,TGI,HCT-116 colon,> 100 µM
same,TGI,K-562 leukemia,> 100 µM
same,TGI,A498 renal,> 100 µM
same,TGI,RXF 393 renal,> 100 µM
same,TGI,SK-MEL-2 melanoma,> 100 µM
same,TGI,SF-268 CNS,> 100 µM
same,TGI,SR leukemia,> 100 µM
same,TGI,LOX IMVI melanoma,> 100 µM
same,TGI,OVCAR-4 ovarian,> 100 µM
same,TGI,OVCAR-8 ovarian,> 100 µM
same,TGI,ACHN renal,> 100 µM
same,TGI,OVCAR-3 ovarian,> 100 µM
same,TGI,XF 498 CNS,> 100 µM
same,TGI,M14 melanoma,> 100 µM
same,TGI,HL-60(TB) leukemia,> 100 µM
same,TGI,SNB-75 CNS,> 100 µM
same,TGI,SNB-78 CNS,> 100 µM
COc1ccc(N/N=C(\CCN(C)C)c2ccccc2)cc1,TGI,HOP-62 NSCLC,9.77 µM
same,TGI,SF-295 CNS,1.65 µM
same,TGI,CCRF-CEM leukemia,23.5 µM
same,TGI,COLO 205 colon,7.84 µM
same,TGI,RPMI-8226 leukemia,7.5 µM
same,TGI,TK-10 renal,6.02 µM
same,TGI,HCT-15 colon,4.57 µM
same,TGI,DLD-1 colon,11.9 µM
same,TGI,MOLT-4 leukemia,44 µM
same,TGI,KM12 colon,18 µM
same,TGI,OVCAR-5 ovarian,91.7 µM
same,TGI,KM20L2 colon,1.71 µM
same,TGI,HOP-18 NSCLC,> 100 µM
same,TGI,LXFL 529 NSCLC,3.8 µM
same,TGI,UACC-62 melanoma,6.23 µM
same,TGI,UO-31 renal,3.99 µM
same,TGI,SK-MEL-28 melanoma,7.83 µM
same,TGI,SW-620 colon,10.9 µM
same,TGI,IGROV1 ovarian,17.8 µM
same,TGI,SN12C renal,17.2 µM
same,TGI,MALME-3M melanoma,35.2 µM
same,TGI,NCI-H460 lung,10.8 µM
same,TGI,UACC-257 melanoma,16.4 µM
same,TGI,SK-MEL-5 melanoma,21.2 µM
same,TGI,NCI-H522 lung,30 µM
same,TGI,HT29 colon,23.6 µM
same,TGI,NCI-H23 lung,19.7 µM
same,TGI,EKVX NSCLC,56.9 µM
same,TGI,M19-MEL melanoma,13.5 µM
same,TGI,SF-539 CNS,3.69 µM
same,TGI,SK-OV-3 ovarian,9.74 µM
same,TGI,DMS 114 small cell lung,27.6 µM
same,TGI,DMS 273 small cell lung,11.1 µM
same,TGI,786-0 renal,12.4 µM
same,TGI,U251 CNS,4.55 µM
same,TGI,HCT-116 colon,13.8 µM
same,TGI,K-562 leukemia,7.31 µM
same,TGI,A498 renal,29.6 µM
same,TGI,RXF 393 renal,29.7 µM
same,TGI,SK-MEL-2 melanoma,18.9 µM
same,TGI,SF-268 CNS,> 100 µM
same,TGI,SR leukemia,15.6 µM
same,TGI,LOX IMVI melanoma,7.74 µM
same,TGI,OVCAR-4 ovarian,17.1 µM
same,TGI,OVCAR-8 ovarian,27.2 µM
same,TGI,ACHN renal,4.84 µM
same,TGI,SNB-19 CNS,14.5 µM
same,TGI,OVCAR-3 ovarian,11.4 µM
same,TGI,M14 melanoma,24.2 µM
same,TGI,HL-60(TB) leukemia,12.9 µM
same,TGI,SNB-75 CNS,53 µM
same,TGI,SNB-78 CNS,26.9 µM
CC(=O)c1ccc2c(ccc(=O)n2C)c1,TGI,HOP-62 NSCLC,> 100 µM
same,TGI,SF-295 CNS,> 100 µM
same,TGI,CCRF-CEM leukemia,> 100 µM
same,TGI,COLO 205 colon,> 100 µM
same,TGI,RPMI-8226 leukemia,> 100 µM
same,TGI,CAKI-1 renal,> 100 µM
same,TGI,TK-10 renal,> 100 µM
same,TGI,HCT-15 colon,> 100 µM
same,TGI,DLD-1 colon,> 100 µM
same,TGI,MOLT-4 leukemia,> 100 µM
same,TGI,KM12 colon,> 100 µM
same,TGI,OVCAR-5 ovarian,> 100 µM
same,TGI,KM20L2 colon,> 100 µM
same,TGI,HOP-18 NSCLC,> 100 µM
same,TGI,LXFL 529 NSCLC,> 100 µM
same,TGI,UACC-62 melanoma,> 100 µM
same,TGI,SK-MEL-28 melanoma,> 100 µM
same,TGI,SW-620 colon,> 100 µM
same,TGI,NCI-H226 lung,> 100 µM
same,TGI,IGROV1 ovarian,> 100 µM
same,TGI,SN12C renal,> 100 µM
same,TGI,HCC-2998 colon,> 100 µM
same,TGI,A549 NSCLC,> 100 µM
same,TGI,MALME-3M melanoma,> 100 µM
same,TGI,NCI-H460 lung,> 100 µM
same,TGI,SK-MEL-5 melanoma,> 100 µM
same,TGI,NCI-H522 lung,> 100 µM
same,TGI,HT29 colon,> 100 µM
same,TGI,NCI-H23 lung,> 100 µM
same,TGI,EKVX NSCLC,> 100 µM
same,TGI,M19-MEL melanoma,> 100 µM
same,TGI,SF-539 CNS,> 100 µM
same,TGI,SK-OV-3 ovarian,> 100 µM
same,TGI,DMS 114 small cell lung,> 100 µM
same,TGI,DMS 273 small cell lung,> 100 µM
same,TGI,786-0 renal,> 100 µM
same,TGI,HOP-92 NSCLC,> 100 µM
same,TGI,U251 CNS,> 100 µM
same,TGI,HCT-116 colon,> 100 µM
same,TGI,K-562 leukemia,> 100 µM
same,TGI,A498 renal,> 100 µM
same,TGI,SK-MEL-2 melanoma,> 100 µM
same,TGI,SF-268 CNS,> 100 µM
same,TGI,LOX IMVI melanoma,> 100 µM
same,TGI,OVCAR-4 ovarian,> 100 µM
same,TGI,OVCAR-8 ovarian,> 100 µM
same,TGI,SNB-19 CNS,> 100 µM
same,TGI,OVCAR-3 ovarian,> 100 µM
same,TGI,XF 498 CNS,> 100 µM
same,TGI,M14 melanoma,> 100 µM
same,TGI,HL-60(TB) leukemia,> 100 µM
same,TGI,SNB-75 CNS,> 100 µM
CCN(CC)CCCC(C)Nc1ccnc2ccc3nn(C)nc3c12 (stereo not drawn),TGI,HOP-62 NSCLC,> 100 µM
same,TGI,SF-295 CNS,> 100 µM
same,TGI,CCRF-CEM leukemia,> 100 µM
same,TGI,COLO 205 colon,> 100 µM
same,TGI,RPMI-8226 leukemia,> 100 µM
same,TGI,CAKI-1 renal,> 100 µM
same,TGI,TK-10 renal,> 100 µM
same,TGI,DLD-1 colon,> 100 µM
same,TGI,MOLT-4 leukemia,> 100 µM
same,TGI,KM12 colon,> 100 µM
same,TGI,OVCAR-5 ovarian,> 100 µM
same,TGI,KM20L2 colon,> 100 µM
same,TGI,HOP-18 NSCLC,> 100 µM
same,TGI,LXFL 529 NSCLC,> 100 µM
same,TGI,UACC-62 melanoma,> 100 µM
same,TGI,UO-31 renal,> 100 µM
same,TGI,SW-620 colon,75.7 µM
same,TGI,NCI-H226 lung,> 100 µM
same,TGI,IGROV1 ovarian,> 100 µM
same,TGI,SN12C renal,> 100 µM
same,TGI,HCC-2998 colon,> 100 µM
same,TGI,A549 NSCLC,> 100 µM
same,TGI,MALME-3M melanoma,> 100 µM
same,TGI,NCI-H460 lung,> 100 µM
same,TGI,UACC-257 melanoma,> 100 µM
same,TGI,SK-MEL-5 melanoma,> 100 µM
same,TGI,HT29 colon,> 100 µM
same,TGI,NCI-H23 lung,> 100 µM
same,TGI,EKVX NSCLC,> 100 µM
same,TGI,M19-MEL melanoma,> 100 µM
same,TGI,SF-539 CNS,> 100 µM
same,TGI,SK-OV-3 ovarian,> 100 µM
same,TGI,DMS 273 small cell lung,91.5 µM
same,TGI,786-0 renal,> 100 µM
same,TGI,U251 CNS,> 100 µM
same,TGI,HCT-116 colon,> 100 µM
same,TGI,K-562 leukemia,86.3 µM
same,TGI,A498 renal,> 100 µM
same,TGI,SF-268 CNS,> 100 µM
same,TGI,SR leukemia,> 100 µM
same,TGI,LOX IMVI melanoma,41.1 µM
same,TGI,OVCAR-8 ovarian,> 100 µM
same,TGI,ACHN renal,> 100 µM
same,TGI,SNB-19 CNS,> 100 µM
same,TGI,M14 melanoma,90.1 µM
same,TGI,HL-60(TB) leukemia,> 100 µM
same,TGI,SNB-75 CNS,> 100 µM
same,TGI,SNB-78 CNS,> 100 µM
